From patent publication US12251383B2, “Methods and compositions for KRAS inhibitors” (The Board of Regents of the University of Texas System, priority 2019, dated 2025)
Entries after “also recorded” stand apart in the source; their conditions may differ.

Tests used:
GDP-bound KRAS^WT = GDP-bound KRAS^WT (Homo sapiens, UniProt P01116); test: MST binding, GDP-bound KRAS WT; conditions: GDP state
Description: FIGS. 1A-1D show representative data for the predicted binding mode and measured affinity of disclosed compound 11 to KRAS. (FIG. 1A) Structure of the catalytic domain of KRAS used for the virtual screening. Lobe1 (residues 1-86) and lobe2 (residues 87-166) are highlighted in different colors, as well as switches 1 (residues 30-40) and 2 (residues 60-75). The location of the target allosteric pocket p1 is indicated. (FIG. 1B) Chemical structure of compound 11. (FIG. 1C) Predicted binding pose of compound 11, with the key residues that make polar or vdW contacts with the ligand labeled. (FIG. 1D) Microscale thermophoresis (MST) experiments indicating direct binding of compound 11 to KRAS, along with dissociation constants (KD) derived from the curves. Changes in fluorescence upon titration of […] KRAS with increasing concentration of compound are shown: KRAS^WT (red), KRAS^G12C (green), KRAS^G12D (purple) and KRAS^Q61M (blue), each bound to the non-hydrolyzable GTP analogue, guanylyl imidodiphosphate (GNP). The same experiments indicated no binding to GDP-bound KRAS^G12D and KRAS^WT as well as Rap1B, which was used as control. […]

KRAS-Raf^RBD interaction = KRAS-Raf^RBD interaction (Homo sapiens, UniProt P01116); test: Fluorescence polarization of BGTP-γ-S KRAS with GST-Raf RBD; format: binding
Protocol: FIGS. 2A-2C show representative data pertaining to the disruption of KRAS-Raf interaction by disclosed compound 11. (FIG. 2A) Fluorescence polarization of ^BGTP-γ-SKRAS (0.5 μM) as a function of a varying concentration of GST-Raf^RBD in the absence (red) and presence (blue) of 1 μM compound 11. Shown above the curves is the KD for KRAS-Raf^RBD binding obtained by fitting the data to
(§1) [formula] where P1 is polarization of free KRAS, P2 is polarization of Raf-bound KRAS, c is the total concentration of KRAS, and x the total concentration of Raf^RBD. (FIG. 2B) Amount of GFP-KRAS^G12D pulled down by GST-Raf^RBD after treatment of cell lysates with compound at the concentrations indicated (representative Westerns are shown at the top). The RBD sequence length was 1-149 and 51-131 in the fluorescence polarization and pull-down assays, respectively. (FIG. 2C) GFP fluorescence lifetime from FLIM-FRET using cells expressing GFP-KRAS^G12D alone or with RFP-Raf, with or without treatment by 1 μM compound 11. Data are shown as mean±S.E; significance estimated by one-way analysis of variance.
Fluorescence polarization. Fluorescence polarization assay was conducted following previous reports (48, 49). KRAS was pre-loaded with the non-hydrolyzable fluorescent GTP analog BODIPY-GTP-γ-S (BGTP-γ-S; Life Technologies) using buffer-exchange in NAP-5 (GE Life Sciences) as described in the previous section. Then 0.5 μM (50 μL) of ^BGTP-γ-SKRAS was incubated with an equal volume but varying concentrations (0 to 2.5 μM) of GST-Raf^RBD (Raf RBD residues 1-149; Life Technologies) for 30 min in the dark. To determine the effect of ligand on RAS-Raf binding, KRAS was first incubated with a fixed concentration of the ligand for 30 min and then with GST-Raf^RBD. Fluorescence polarization was measured using PolarStar Optima plate reader (excitation: 485 nm, emission: 520 nm) at room temperature. GST-tag was used to increase the weight of Raf^RBD for a greater polarization. The dissociation constant for KRAS-Raf binding was determined using a quadratic ligand binding equation (48).

[1] = biological target: T1, KRAS^G12D-Raf^RBD interaction (Homo sapiens, UniProt P01116, G12D); test: Pull-down of GFP-KRAS G12D by GST-Raf RBD from cell lysates; format: binding
T1 construct: expressed in transfected cells; host or cells: BHK cells expressing GFP-RAS (lysate); GST-Raf RBD made in E. coli BL21 from a GEX plasmid
Description: as §1
Pull-down. GFP-RAS with GST-tagged RAS binding domain (RBD) of cRaf^A85K (hereafter GST-Raf^RBD) pulled down to monitor RAS-Raf interaction. To prepare GST-Raf^RBD bound to agarose beads, bacteria (BL21) transfected with a previously cloned GEX plasmid were grown in selection media to OD levels of 0.5-1.0 before protein expression was initiated with IPTG (1:1000). After 4 h, the sample was centrifuged at 6000 rpm for 5 min at 4° C., the pellet was re-suspended with PBS containing 5 mM EGTA, 1% Triton X, PIC 1:50 and PMSF 1:100, and cells were lysed with cycles of freezing and thawing. The lysate was sonicated to breakup DNA, and pelleted. […]

[2] = test system: SKLU-1 (KRAS^G12D) lung cancer cells; test: Cell proliferation (CyQuant), SKLU-1; format: cell-based; conditions: 72 h
Protocol: Cell proliferation. Potential effect of the ligands on cancer cell proliferation was tested in three lung cancer cells: SKLU-1, H1975 and H522. Cells were plated at ˜1,000 cell per well in a 96-well plate and maintained in full serum media with or without compound at 37° C. for 72 h changing the media with the compound every 24 h. Media with compound was prepared by serial dilution at concentrations indicated. Then cells were washed with PBS and frozen at −80° C. for a minimum of 24 h. Plates were thawed and CyQuant™ dye (in lysis buffer provided in the CyQuant™ cell proliferation assay kit, Invitrogen™) was added, and after a five-minute incubation, fluorescence (excitation: 480 nm emission: 520 nm) was measured with a Tecan Infinite M200 plate reader.

| SMILES | binding (in words) (GDP-bound KRAS^WT) | reduction of polarization (RAS-Raf interaction) (KRAS-Raf^RBD interaction; 1 μM compound, at 2 μM GST-Raf^RBD) [%] | reduction of affinity of KRAS to Raf^RBD (KRAS-Raf^RBD interaction; 1 μM compound, from KD of polarization curves) [fold] | decrease in GFP-KRAS^G12D levels pulled down ([1]; at 1 μM) [%] | sensitivity of proliferation [2] | effect on interaction of KRAS with GST-Raf^RBD (KRAS-Raf^RBD interaction; 20 μM compound) | effect on KRAS^G12D-Raf^RBD interaction (pull-down) ([1]; 10 μM) |
| --- | --- | --- | --- | --- | --- | --- | --- |
| Cc1nn2c(N3CCN(CCO)CC3)cc(-c3ccccc3)nc2c1-c1ccccc1 [Compound 11, 2-[4-(8-methyl-3,9-diphenyl-2,6,7-triazabicyclo[4.3.0]nona-2,4,7,9-tetraen-5-yl)piperazin-1-yl]ethanol] | no binding; also recorded: does not bind | > 80 | ~13 | > 50 | slightly more sensitive; also recorded: especially responsive |  |  |
| Cc1cc(N2CCN(CCO)CC2)n2nc(C)c(-c3ccccc3)c2n1 [Compound 13] | does not bind |  |  |  |  | as effectively as the parent compound | disrupts |
